Earlier results in PMC10146264, “Safety, Pharmacokinetic and Pharmacodynamic Evaluation of Teverelix for the Treatment of Hormone-Sensitive Advanced Prostate Cancer: Phase 2 Loading-Dose-Finding Studies” (Medicina, 2023).

Columns and labels:
[1] = tested on: patients with prostate cancer; conditions: in vivo
patients = tested on: patients
From the text: In the United States, cardiovascular disease is the main cause of death for prostate cancer patients, and patients with prostate cancer have a higher risk of death from non-cancer causes than the general population. ADT is associated with a number of cardiometabolic side effects including decreased insulin sensitivity, changes in lipid profile, and an increased risk of thromboembolic and cerebrovascular events. The risk seems to be highest in elderly patients who have had recent cardiovascular events before starting ADT [27]. According to a Scientific Statement issued by the Am ...

Row | Compound | Incidence of injection-site reactions [1] | Major cardiovascular events, patients (patients; phase 3 randomized trial, within the first 12 months of treatment) [%] | Major cardiovascular events, HR [95% CI] GnRH antagonist vs GnRH agonist (patients; phase 3 trial relugolix vs leuprolide, first 12 months of treatment)
1 | Degarelix | ~ 40% | – | –
2 | CONC(=O)Nc1ccc(-c2sc3c(c2CN(C)C)c(=O)n(-c2ccc(OC)nn2)c(=O)n3Cc2c(F)cccc2F)cc1 [relugolix] | – | 2.9 | 0.46
